The target of test [1] is human norepinephrine transporter (NET) (Homo sapiens (Human), UniProt P23975). The experiment in a line: Binding assay to human norepinephrine transporter (NET) ([3H]-Nisoxetin). As to conditions: Table 2, dual compounds, human NET enriched membranes, read-out: Ki (nM) NET Hum. How it is done: Binding Assay to Human Norepinephrine Transporter (NET).
Human norepinephrine transporter (NET) enriched membranes (5 μg) were incubated with 5 nM of radiolabeled [3H]-Nisoxetin in assay buffer containing 50 mM Tris-HCl, 120 mM NaCl, 5 mM KCl, pH 7.4.
NSB (non specific binding) was measured by adding desipramine 10 μM. The binding of the test compound was measured at five different concentrations. After 60 min incubation at 4° C., binding reaction was terminated by filtering through Multiscreen GF/C (Millipore) presoaked in 0.5% polyethyleneimine in Vacuum Manifold Station, followed by 3 washes with ice-cold filtration buffer containing 50 mM Tris-HCl, 0.9% NaCl, pH 7.4.
Filter plates were dried at 60° C. for 1 h and 30 μl of scintillation cocktail were added to each well before radioactivity reading.
(§1) Readings were performed in a Trilux 1450 Microbeta radioactive counter (Perkin Elmer).

Test [2] deals with human α2δ-1 subunit of Cav2.2 calcium channel (Homo sapiens (Human), UniProt P54289). The experiment in a line: Binding assay to human α2δ-1 subunit of Cav2.2 calcium channel ([3H]-Gabapentin). To be noted: read-out: Ki (nM) alpha2delta Hum. As to the method:
Binding Assay to Human α2δ-1 Subunit of Cav2.2 Calcium Channel.
Human α2δ-1 enriched membranes (2.5 μg) were incubated with 15 nM of radiolabeled [3H]-Gabapentin in assay buffer containing Hepes-KOH 10 mM, pH 7.4.
NSB (non specific binding) was measured by adding 10 μM pregabalin. The binding of the test compound was measured at five different concentrations. After 60 min incubation at 27° C., binding reaction was terminated by filtering through Multiscreen GF/C (Millipore) presoaked in 0.5% polyethyleneimine in Vacuum Manifold Station, followed by 3 washes with ice-cold filtration buffer containing 50 mM Tris-HCl, pH 7.4. Filter plates were dried at 60° C. for 1 h and 30 μl of scintillation cocktail were added to each well before radioactivity reading.
as §1

Setting [3] is: Table 1, human α2δ-1 enriched membranes.
Setting [4] is: Table 2, dual compounds, human α2δ-1 enriched membranes.

Like-named read-outs stand apart in the source and are kept apart here. A value given as a limit tells only on which side of the number the result lay.

human norepinephrine transporter (NET), sequence (P23975 whole entry): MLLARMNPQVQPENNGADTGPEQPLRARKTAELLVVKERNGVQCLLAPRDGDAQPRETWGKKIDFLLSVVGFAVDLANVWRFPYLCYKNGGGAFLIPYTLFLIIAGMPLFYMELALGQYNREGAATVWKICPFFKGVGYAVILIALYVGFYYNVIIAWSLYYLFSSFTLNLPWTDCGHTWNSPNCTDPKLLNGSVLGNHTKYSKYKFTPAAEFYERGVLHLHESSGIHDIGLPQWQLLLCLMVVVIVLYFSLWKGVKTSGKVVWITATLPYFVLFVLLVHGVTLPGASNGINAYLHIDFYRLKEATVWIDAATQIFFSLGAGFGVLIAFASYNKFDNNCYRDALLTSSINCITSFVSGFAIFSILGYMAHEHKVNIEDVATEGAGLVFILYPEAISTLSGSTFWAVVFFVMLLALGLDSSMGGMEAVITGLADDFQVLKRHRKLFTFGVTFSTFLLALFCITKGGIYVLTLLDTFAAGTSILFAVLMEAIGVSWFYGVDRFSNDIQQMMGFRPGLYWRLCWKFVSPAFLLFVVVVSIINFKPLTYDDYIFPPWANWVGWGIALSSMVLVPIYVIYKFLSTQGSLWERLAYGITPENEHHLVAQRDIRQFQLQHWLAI
human α2δ-1 subunit of Cav2.2 calcium channel, sequence (P54289 25-1103): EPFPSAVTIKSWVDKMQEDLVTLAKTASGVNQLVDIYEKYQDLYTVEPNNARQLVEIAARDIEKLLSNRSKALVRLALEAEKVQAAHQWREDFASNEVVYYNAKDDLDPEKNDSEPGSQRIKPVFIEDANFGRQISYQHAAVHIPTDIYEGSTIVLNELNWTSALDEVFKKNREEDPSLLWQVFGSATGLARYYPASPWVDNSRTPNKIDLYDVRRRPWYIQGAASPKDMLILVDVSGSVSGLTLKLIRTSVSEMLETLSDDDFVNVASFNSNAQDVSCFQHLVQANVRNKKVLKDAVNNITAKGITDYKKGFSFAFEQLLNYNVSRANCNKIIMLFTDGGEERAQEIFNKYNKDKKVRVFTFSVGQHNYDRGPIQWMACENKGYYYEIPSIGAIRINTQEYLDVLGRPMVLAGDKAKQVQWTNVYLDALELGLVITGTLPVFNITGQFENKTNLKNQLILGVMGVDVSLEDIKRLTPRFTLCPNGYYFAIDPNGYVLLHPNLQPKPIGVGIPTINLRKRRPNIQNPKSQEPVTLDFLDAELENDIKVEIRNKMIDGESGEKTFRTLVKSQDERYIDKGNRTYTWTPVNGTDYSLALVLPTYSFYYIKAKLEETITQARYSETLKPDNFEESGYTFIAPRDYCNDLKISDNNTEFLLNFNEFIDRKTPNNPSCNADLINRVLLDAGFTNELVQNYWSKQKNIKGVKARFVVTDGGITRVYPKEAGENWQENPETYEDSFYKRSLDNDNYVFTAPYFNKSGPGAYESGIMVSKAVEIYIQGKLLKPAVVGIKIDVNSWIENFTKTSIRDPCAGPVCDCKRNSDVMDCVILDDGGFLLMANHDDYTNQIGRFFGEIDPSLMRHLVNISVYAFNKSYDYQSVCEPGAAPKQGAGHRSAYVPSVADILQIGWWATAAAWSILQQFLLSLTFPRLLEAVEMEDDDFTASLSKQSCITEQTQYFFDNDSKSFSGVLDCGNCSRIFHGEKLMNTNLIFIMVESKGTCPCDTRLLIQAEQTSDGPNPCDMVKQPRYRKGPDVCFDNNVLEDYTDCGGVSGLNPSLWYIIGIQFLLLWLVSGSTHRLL

Consider `CNCCC(Oc1cccc2cnccc12)c1cccnc1` (stereo not drawn) [Example 17, 3-(isoquinolin-5-yloxy)-N-methyl-3-(pyridin-3-yl)propan-1-amine], for which the Ki in test [1] is 100 to 500 nM; in test [2] (setting [3]), at least 3000 nM; in test [2] (setting [4]) it was at least 3000 nM.

`CNCCC(Oc1cccc2cnccc12)C1CCOCC1` (stereo not drawn) [Example 18, 3-(isoquinolin-5-yloxy)-N-methyl-3-(tetrahydro-2H-pyran-4-yl)propan-1-amine]: the Ki is 100 to 500 nM in test [1], at least 3000 nM in test [2] (setting [3]) and at least 3000 nM in test [2] (setting [4]).

Consider `CNCCC(Oc1cccc2cnccc12)c1ccncc1` (stereo not drawn) [Example 25, 3-(isoquinolin-5-yloxy)-N-methyl-3-(pyridin-4-yl)propan-1-amine], for which the Ki in test [1] was 100 to 500 nM; in test [2] (setting [3]), at least 3000 nM; in test [2] (setting [4]), at least 3000 nM.

On to `CNCCC(Oc1cccc2ccncc12)c1cc(C(F)(F)F)ccn1` (stereo not drawn) [Example 30, 3-(isoquinolin-8-yloxy)-N-methyl-3-(4-(trifluoromethyl)pyridin-2-yl)propan-1-amine], for which the figures for the Ki in test [1], in test [2] (setting [3]) and in test [2] (setting [4]) were 500 to 1000 nM, at least 3000 nM and at least 3000 nM, respectively.

Consider `CNCCC(Oc1cccc2ncccc12)c1ccc(Cl)s1` (stereo not drawn) [Example 41, 3-(5-chlorothiophen-2-yl)-N-methyl-3-(quinolin-5-yloxy)propan-1-amine], for which the Ki in test [1], in test [2] (setting [3]) and in test [2] (setting [4]) was 100 to 500 nM in each case.

Regarding `CNCCC(Oc1cccc2ncccc12)c1ccc(F)s1` (stereo not drawn) [Example 42, 3-(5-fluorothiophen-2-yl)-N-methyl-3-(quinolin-5-yloxy)propan-1-amine], the values for the Ki in test [1], in test [2] (setting [3]) and in test [2] (setting [4]) were 100 to 500 nM, below 100 nM and below 100 nM, respectively.

As to `NCCC(Oc1cccc2cnccc12)c1cccs1` (stereo not drawn) [Example 44, 3-(isoquinolin-5-yloxy)-3-(thiophen-2-yl)propan-1-amine], the Ki in test [1] was 100 to 500 nM; in test [2] (setting [3]), at least 3000 nM; in test [2] (setting [4]), at least 3000 nM.

As to `CNCCC(Oc1cccc2cnccc12)c1ccc(F)s1` (stereo not drawn) [Example 45, 3-(5-fluorothiophen-2-yl)-3-(isoquinolin-5-yloxy)-N-methylpropan-1-amine], the Ki was 100 to 500 nM in test [1], below 100 nM in test [2] (setting [3]) and below 100 nM in test [2] (setting [4]).

In the case of `CNCCC(Oc1cccc2cnccc12)c1sccc1F` (stereo not drawn) [Example 46, 3-(3-fluorothiophen-2-yl)-3-(isoquinolin-5-yloxy)-N-methylpropan-1-amine], the Ki in test [1] is below 100 nM; in test [2] (setting [3]) it was 100 to 500 nM; in test [2] (setting [4]) it was 100 to 500 nM.

With `CNCCC(Oc1cccc2ccncc12)c1sccc1F` (stereo not drawn) [Example 47, 3-(3-fluorothiophen-2-yl)-3-(isoquinolin-8-yloxy)-N-methylpropan-1-amine], the Ki in test [1], in test [2] (setting [3]) and in test [2] (setting [4]) was 100 to 500 nM throughout.

In the case of `CNCCC(Oc1cccc2ncccc12)c1sccc1F` (stereo not drawn) [Example 48, 3-(3-fluorothiophen-2-yl)-N-methyl-3-(quinolin-5-yloxy)propan-1-amine], the Ki in test [1], in test [2] (setting [3]) and in test [2] (setting [4]) was 100 to 500 nM in each case.

Take `CNCCC(Oc1cccc2ccncc12)c1ccc(F)s1` (stereo not drawn) [Example 49, 3-(5-fluorothiophen-2-yl)-3-(isoquinolin-8-yloxy)-N-methylpropan-1-amine]: the Ki in test [1], in test [2] (setting [3]) and in test [2] (setting [4]) was 100 to 500 nM each time.

As for `CNCC[C@H](Oc1cccc2cnccc12)c1ccc(F)s1` [Example 50, (S)-3-(5-fluorothiophen-2-yl)-3-(isoquinolin-5-yloxy)-N-methylpropan-1-amine], the values for the Ki in test [1], in test [2] (setting [3]) and in test [2] (setting [4]) were below 100 nM, 500 to 3000 nM and 500 to 3000 nM, respectively.

As to `CNCC[C@H](Oc1cccc2ncccc12)c1ccc(F)s1` [Example 51, (S)-3-(5-fluorothiophen-2-yl)-N-methyl-3-(quinolin-5-yloxy)propan-1-amine], the Ki in test [1], in test [2] (setting [3]) and in test [2] (setting [4]) was 100 to 500 nM in each case.

Turning to `CNCC[C@@H](Oc1cccc2cnccc12)c1ccc(F)s1` [Example 52, (R)-3-(5-fluorothiophen-2-yl)-3-(isoquinolin-5-yloxy)-N-methylpropan-1-amine], the Ki in test [1] was 100 to 500 nM; in test [2] (setting [3]) it was below 100 nM; in test [2] (setting [4]) it was below 100 nM.

Turning to `CNCC[C@@H](Oc1cccc2ncccc12)c1ccc(F)s1` [Example 53, (R)-3-(5-fluorothiophen-2-yl)-N-methyl-3-(quinolin-5-yloxy)propan-1-amine], the values for the Ki in test [1], in test [2] (setting [3]) and in test [2] (setting [4]) were 100 to 500 nM, below 100 nM and below 100 nM, respectively.

Regarding `CNCCC(Oc1ccc2cnccc2c1)c1cccs1` (stereo not drawn) [Example 54, 3-(isoquinolin-6-yloxy)-N-methyl-3-(thiophen-2-yl)propan-1-amine], the Ki in test [1] lay in the range of 100 to 500 nM; in test [2] (setting [3]) it was 500 to 3000 nM; in test [2] (setting [4]), 500 to 3000 nM.

With `CNCCC(Oc1cccc2cnccc12)c1ccsc1` (stereo not drawn) [Example 56, 3-(isoquinolin-5-yloxy)-N-methyl-3-(thiophen-3-yl)propan-1-amine], the figures for the Ki in test [1], in test [2] (setting [3]) and in test [2] (setting [4]) were below 100 nM, 100 to 500 nM and 100 to 500 nM, respectively.

In the case of `CNCCC(Oc1cccc2ccncc12)c1ccsc1` (stereo not drawn) [Example 58, 3-(isoquinolin-8-yloxy)-N-methyl-3-(thiophen-3-yl)propan-1-amine], the results for the Ki in test [1], in test [2] (setting [3]) and in test [2] (setting [4]) were 500 to 1000 nM, 100 to 500 nM and 100 to 500 nM, respectively.

For the compound `CNCC[C@@H](Oc1cccc2cnccc12)c1ccsc1` [Example 60, (R)-3-(isoquinolin-5-yloxy)-N-methyl-3-(thiophen-3-yl)propan-1-amine], the Ki in test [1], in test [2] (setting [3]) and in test [2] (setting [4]) was 100 to 500 nM throughout.

For the compound `CNCC[C@@H](Oc1cccc2ccncc12)c1ccsc1` [Example 61, (R)-3-(isoquinolin-8-yloxy)-N-methyl-3-(thiophen-3-yl)propan-1-amine], the Ki in test [1], in test [2] (setting [3]) and in test [2] (setting [4]) was 100 to 500 nM each time.

As for `CNCC[C@@H](Oc1cccc2ccnc(C)c12)c1cccs1` [Example 62, (R)-N-methyl-3-((1-methylisoquinolin-8-yl)oxy)-3-(thiophen-2-yl)propan-1-amine], the Ki in test [1] was 500 to 1000 nM; in test [2] (setting [3]), below 100 nM; in test [2] (setting [4]), below 100 nM.

Turning to `CNCC[C@H](Oc1cccc2c(C)nccc12)c1cccs1` [Example 65, (S)-N-methyl-3-((1-methylisoquinolin-5-yl)oxy)-3-(thiophen-2-yl)propan-1-amine], the Ki in test [1] was 100 to 500 nM; in test [2] (setting [3]) it was at least 3000 nM; in test [2] (setting [4]) it was at least 3000 nM.

Regarding `CNCC[C@H](Oc1cccc2ncccc12)c1ccsc1` [Example 67, (S)-N-methyl-3-(quinolin-5-yloxy)-3-(thiophen-3-yl)propan-1-amine], the Ki in test [1], in test [2] (setting [3]) and in test [2] (setting [4]) was 100 to 500 nM each time.

As to `CNCC[C@H](Oc1cccc2cnccc12)c1ccsc1` [Example 68, (S)-3-(isoquinolin-5-yloxy)-N-methyl-3-(thiophen-3-yl)propan-1-amine], the Ki in test [1] is below 100 nM; in test [2] (setting [3]), at least 3000 nM; in test [2] (setting [4]), at least 3000 nM.

For the compound `CNCC[C@H](Oc1cccc2ccncc12)c1ccsc1` [Example 69, (S)-3-(isoquinolin-8-yloxy)-N-methyl-3-(thiophen-3-yl)propan-1-amine], the Ki in test [1] is 500 to 1000 nM; in test [2] (setting [3]), at least 3000 nM; in test [2] (setting [4]), at least 3000 nM.

For the compound `CNCCC(Oc1cccc2cnccc12)c1nccs1` (stereo not drawn) [Example 71, 3-(isoquinolin-5-yloxy)-N-methyl-3-(thiazol-2-yl)propan-1-amine], the results for the Ki in test [1], in test [2] (setting [3]) and in test [2] (setting [4]) were 100 to 500 nM, 500 to 3000 nM and 500 to 3000 nM, respectively.

On to `CNCCC(Oc1cccc2ncccc12)c1nccs1` (stereo not drawn) [Example 72, N-methyl-3-(quinolin-5-yloxy)-3-(thiazol-2-yl)propan-1-amine], for which the Ki in test [1] fell in the range of 500 to 1000 nM; in test [2] (setting [3]), 100 to 500 nM; in test [2] (setting [4]), 100 to 500 nM.

In the case of `CNCCC(Oc1ccc2ccncc2c1)c1cccs1` (stereo not drawn) [Example 74, 3-(isoquinolin-7-yloxy)-N-methyl-3-(thiophen-2-yl)propan-1-amine], the Ki in test [1] is 100 to 500 nM; in test [2] (setting [3]), at least 3000 nM; in test [2] (setting [4]), at least 3000 nM.

`CNCC[C@H](Oc1cccc2ncccc12)c1ccc(Cl)s1` [Example 78, (S)-3-(5-Chlorothiophen-2-yl)-N-methyl-3-(quinolin-5-yloxy)propan-1-amine]: the values for the Ki in test [1], in test [2] (setting [3]) and in test [2] (setting [4]) were 100 to 500 nM, 500 to 3000 nM and 500 to 3000 nM, respectively.

These data come from patent US10941138B2, “Quinoline and isoquinoline derivatives for treating pain and pain related conditions” (ESTEVE PHARMACEUTICALS, S.A., priority 2016, dated 2021).
